Test results reported in ChEMBL document CHEMBL1201862, “PubChem BioAssay data set” (2004).
Counter-ions that a name gives are not always drawn.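 Grown in 96-well plates, cells were treated for 48 hours with each compound at five concentrations. Insufficient inhibition: endpoint recorded as highest concentration tested. GI50 = concentration required for 50% inhibition of growth.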 Activity calls are given as the source filed them. Cut-off read from the data, not from the text of the source: active = GI50 up to about 1.1 µM and inactive = higher.

How the values were obtained:
Test in all cases: NCI-60 cell line screen, 48 h
LOX IMVI = test system: LOX IMVI
KM12 = test system: KM12
MDA-MB-435 = test system: MDA-MB-435
MCF7 = test system: MCF7
NCI-H522 = test system: NCI-H522
SNB-75 = test system: SNB-75
BT-549 = test system: BT-549
PC-3 = test system: PC-3
TK-10 = test system: TK-10
U-251 = test system: U-251
HCT-15 = test system: HCT-15
SR = test system: SR
CAKI-1 = test system: CAKI-1
Malme-3M = test system: Malme-3M
KM-20L2 = test system: KM-20L2
XF498 = test system: XF498
M19-MEL = test system: M19-MEL
DMS-273 = test system: DMS-273
DLD-1 = test system: DLD-1
HCC 2998 = test system: HCC 2998

| SMILES | GI50 (LOX IMVI) | GI50 (KM12) | GI50 (MDA-MB-435) | GI50 (MCF7) | GI50 (NCI-H522) | GI50 (SNB-75) | GI50 (BT-549) | GI50 (PC-3) | GI50 (TK-10) | GI50 (U-251) | GI50 (HCT-15) [µM] | GI50 (SR) | GI50 (CAKI-1) | GI50 (Malme-3M) | GI50 (KM-20L2) | GI50 (XF498) | GI50 (M19-MEL) | GI50 (DMS-273) | GI50 (DLD-1) | GI50 (HCC 2998) |
| --- | --- | --- | --- | --- | --- | --- | --- | --- | --- | --- | --- | --- | --- | --- | --- | --- | --- | --- | --- | --- |
| CNCCC=C1c2ccccc2CCc2ccccc21 [NORTRIPTYLINE HYDROCHLORIDE] | 13.2 µM (inactive) | 12.2 µM (inactive) | 13.5 µM (inactive) | 15.7 µM (inactive) | 14.6 µM (inactive) | 6.47 µM (inactive) | 15.5 µM (inactive) | 14.3 µM (inactive) | 14.8 µM (inactive) | 14.3 µM (inactive) | 17.1 | 12.1 µM (inactive) | 13.8 µM (inactive) | 15.8 µM (inactive) | – | – | – | – | – | – |
| CSCSCC(CO)NC(=O)/C(C)=C\c1c(C)[nH]c(=O)[nH]c1=O (stereo not drawn) | > 250 µM (inactive) | 200 µM (inactive) | – | > 250 µM (inactive) | > 250 µM (inactive) | > 250 µM (inactive) | – | – | – | > 250 µM (inactive) | 225 | – | 18.3 µM (inactive) | > 250 µM (inactive) | > 250 µM (inactive) | > 64.6 µM (inactive) | > 250 µM (inactive) | > 250 µM (inactive) | > 250 µM (inactive) | > 250 µM (inactive) |
| C[C@]12CC[C@H]3[C@@H](CC=C4C[C@@H](O)CC[C@@]43C)[C@@H]1C/C(=C\c1ccc([N+](=O)[O-])cc1)[C@@H]2O | 18.8 µM (inactive) | 18.5 µM (inactive) | 22.5 µM (inactive) | 6.71 µM (inactive) | 9.98 µM (inactive) | 17.4 µM (inactive) | 14.6 µM (inactive) | 14.3 µM (inactive) | 19.4 µM (inactive) | – | 10.9 | 8.41 µM (inactive) | 13.8 µM (inactive) | 16 µM (inactive) | – | – | – | – | – | 11.7 µM (inactive) |
| CCCCn1cc[n+](-c2nc3ccccc3n2C)c1 | > 100 µM (inactive) | – | – | – | > 100 µM (inactive) | 45.4 µM (inactive) | – | – | > 100 µM (inactive) | > 100 µM (inactive) | > 100 | > 100 µM (inactive) | > 100 µM (inactive) | > 100 µM (inactive) | > 100 µM (inactive) | – | – | > 100 µM (inactive) | > 100 µM (inactive) | > 100 µM (inactive) |
| c1ccc(Nc2nnc(-c3nsc4ccccc34)o2)cc1 | > 100 µM (inactive) | > 100 µM (inactive) | – | – | – | 34.9 µM (inactive) | – | – | > 100 µM (inactive) | 31.4 µM (inactive) | > 100 | > 100 µM (inactive) | – | – | > 100 µM (inactive) | – | > 100 µM (inactive) | 46.6 µM (inactive) | – | > 100 µM (inactive) |
| CN1CCc2[nH]c3ccccc3c2C1 | > 100 µM (inactive) | > 100 µM (inactive) | – | > 100 µM (inactive) | > 100 µM (inactive) | > 100 µM (inactive) | – | – | – | > 100 µM (inactive) | > 100 | – | > 100 µM (inactive) | > 100 µM (inactive) | > 100 µM (inactive) | > 100 µM (inactive) | > 100 µM (inactive) | > 100 µM (inactive) | > 100 µM (inactive) | > 100 µM (inactive) |
| CCCc1c(-c2ccccc2)[nH]c2ccccc2c1=O | 23.9 µM (inactive) | 27.7 µM (inactive) | 37.3 µM (inactive) | 36.7 µM (inactive) | – | – | 40.5 µM (inactive) | > 100 µM (inactive) | 32.6 µM (inactive) | 51.3 µM (inactive) | 27.4 | > 100 µM (inactive) | – | 33 µM (inactive) | – | – | – | – | – | 25.2 µM (inactive) |
| Cc1cc(C)c(NC(=O)/C=C/c2ccccc2)c(C)c1 | – | > 100 µM (inactive) | > 100 µM (inactive) | > 100 µM (inactive) | 6 µM (inactive) | 3.93 µM (inactive) | > 100 µM (inactive) | > 100 µM (inactive) | > 100 µM (inactive) | > 100 µM (inactive) | 78 | 7.28 µM (inactive) | – | – | – | – | – | – | – | > 100 µM (inactive) |
| COc1ccc(/C=C2/C(=O)N(C(=O)c3ccccc3O)N=C2C)cc1 | 0.28 µM (active) | – | 0.05 µM (active) | 0.617 µM (active) | 0.356 µM (active) | – | 0.105 µM (active) | 0.535 µM (active) | 6.04 µM (inactive) | 0.0692 µM (active) | 0.263 | 0.232 µM (active) | 0.0962 µM (active) | – | 16.5 µM (inactive) | 0.3 µM (active) | 0.542 µM (active) | – | 0.0828 µM (active) | – |
| COc1cc2c(cc1OC)C1Cc3cc(OC)c(OC)cc3C(C2)O1 | > 100 µM (inactive) | > 100 µM (inactive) | > 100 µM (inactive) | > 100 µM (inactive) | – | > 100 µM (inactive) | > 100 µM (inactive) | > 100 µM (inactive) | > 100 µM (inactive) | > 100 µM (inactive) | – | – | 44.9 µM (inactive) | – | – | – | – | – | – | > 100 µM (inactive) |
| CC(C)OP(=O)(OC(C)C)c1ncn(-c2ccc([N+](=O)[O-])cc2)n1 | – | > 100 µM (inactive) | – | – | > 100 µM (inactive) | 41.1 µM (inactive) | – | – | > 100 µM (inactive) | > 100 µM (inactive) | > 100 | > 100 µM (inactive) | > 100 µM (inactive) | > 100 µM (inactive) | > 100 µM (inactive) | > 100 µM (inactive) | > 100 µM (inactive) | > 100 µM (inactive) | > 100 µM (inactive) | 86.7 µM (inactive) |
| CC(=O)Oc1ccc(C2COc3cc(OC(C)=O)c(OC(C)=O)cc3C2)cc1 (stereo not drawn) | > 37.1 µM (inactive) | 25 µM (inactive) | – | 19 µM (inactive) | 2.8 µM (inactive) | 6.07 µM (inactive) | – | – | – | 13.2 µM (inactive) | 18.5 | – | 16.3 µM (inactive) | 16.5 µM (inactive) | 37.2 µM (inactive) | 12.2 µM (inactive) | 12.9 µM (inactive) | 21.9 µM (inactive) | 17.9 µM (inactive) | 21.3 µM (inactive) |
| N#CCCN(c1ccc(/C=N/c2cccc([N+](=O)[O-])c2)cc1)S(=O)(=O)c1ccccc1 | – | > 100 µM (inactive) | – | – | > 100 µM (inactive) | 75.2 µM (inactive) | – | – | > 100 µM (inactive) | – | – | > 100 µM (inactive) | > 100 µM (inactive) | > 100 µM (inactive) | – | > 100 µM (inactive) | – | > 100 µM (inactive) | > 100 µM (inactive) | > 100 µM (inactive) |
